Assay results reported in PubChem BioAssay AID330 (DTP/NCI, 2004).
Several values for one entry are separate records, joined by “and”; a condition that tells them apart may be missing. Equal entries are not always repeated. Toxic doses and inconclusive results are not listed.

System: P388 leukemia ip, CD2F1 mice, survival T/C
Assay: NCI In Vivo Anticancer Drug Screen. Data for tumor model P388 Leukemia (intraperitoneal) in CD2F1 (CDF1) mice
Settings: endpoint: median survival time, higher = longer survival
How it was run: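 Mice carrying the transplanted tumor received test compound or vehicle. Survival was recorded in each group, and the value is the treated-group measurement divided by that of the vehicle-treated control group.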

[1] = dose: 50.0 mg/kg/injection, schedule: Q01DX005 (ip), vehicle: saline with Tween-80
[2] = dose: 100.0 mg/kg/injection, schedule: Q01DX005 (ip), vehicle: saline with Tween-80
[3] = dose: 200.0 mg/kg/injection, schedule: Q01DX005 (ip), vehicle: saline with Tween-80
[4] = dose: 25.0 mg/kg/injection, schedule: Q01DX005 (ip), vehicle: Klucel (hydroxypropylcellulose) (HPC)
[5] = dose: 50.0 mg/kg/injection, schedule: Q01DX005 (ip), vehicle: Klucel (hydroxypropylcellulose) (HPC)
[6] = dose: 100.0 mg/kg/injection, schedule: Q01DX005 (ip), vehicle: Klucel (hydroxypropylcellulose) (HPC)
[7] = dose: 200.0 mg/kg/injection, schedule: Q01DX005 (ip), vehicle: Klucel (hydroxypropylcellulose) (HPC)
[8] = dose: 100.0 mg/kg/injection, schedule: Q01DX001 (ip), vehicle: saline
[9] = dose: 100.0 mg/kg/injection, schedule: Q04DX003 (ip), vehicle: saline with Tween-80
[10] = dose: 12.5 mg/kg/injection, schedule: Q01DX005 (ip), vehicle: saline with Tween-80
[11] = dose: 25.0 mg/kg/injection, schedule: Q01DX005 (ip), vehicle: saline with Tween-80
[12] = dose: 60.0 mg/kg/injection, schedule: Q01DX005 (ip), vehicle: saline with Tween-80
[13] = dose: 120.0 mg/kg/injection, schedule: Q01DX005 (ip), vehicle: saline with Tween-80
[14] = dose: 240.0 mg/kg/injection, schedule: Q01DX005 (ip), vehicle: saline with Tween-80
[15] = dose: 50.0 mg/kg/injection, schedule: Q01DX009 (ip), vehicle: saline
[16] = dose: 100.0 mg/kg/injection, schedule: Q01DX009 (ip), vehicle: saline

`CC1CC(=O)c2c(CO)nn(CCCO)c2C1` (configuration not stated) was tested, and the T/C (dose: 15.0 mg/kg/injection, schedule: Q01DX005 (ip), vehicle: Klucel (hydroxypropylcellulose) (HPC)) was 101 % of control, the T/C (dose: 30.0 mg/kg/injection, schedule: Q01DX005 (ip), vehicle: Klucel (hydroxypropylcellulose) (HPC)) was 102 % of control and the T/C (dose: 60.0 mg/kg/injection, schedule: Q01DX005 (ip), vehicle: Klucel (hydroxypropylcellulose) (HPC)) was 101 % of control. The T/C (dose: 60.0 mg/kg/injection, schedule: Q01DX005 (ip), vehicle: saline) was 101 % of control.
In the case of `COC12c3c(C)cc(O)c4c(=O)occ(c34)C(=O)C1C13COC(=O)c4c(O)cc(C)c(c41)C(=O)C2C3OC(C)=O` (configuration not stated), the T/C (dose: 25.0 mg/kg/injection, schedule: Q01DX009 (ip), vehicle: saline with Tween-80) is reported as 107 % of control and 119 % of control, the T/C (dose: 50.0 mg/kg/injection, schedule: Q01DX009 (ip), vehicle: saline with Tween-80) is reported as 111 % of control and 122 % of control and the T/C (dose: 100.0 mg/kg/injection, schedule: Q01DX009 (ip), vehicle: saline with Tween-80) is reported as 103 % of control and 120 % of control and 123 % of control.
For `O=C(O)Cc1cccc(=O)c(O)c1C(=O)O`, the T/C [1] was 98 % of control, the T/C [2] was 104 % of control and the T/C [3] was 96 % of control.
For `C/C=C/C(=O)Oc1ccc[nH]c1=O`, the T/C [4] was 105 % of control and 91 % of control, the T/C [5] was 114 % of control and 116 % of control and the T/C [6] was 108 % of control and 113 % of control. For the same compound, the T/C [7] was 92 % of control.
In the case of `CC1CCC(=O)CN1Cc1ccccc1` (configuration not stated), the T/C [1] is reported as 109 % of control and the T/C [2] is reported as 101 % of control.
For `COC(=O)C(CS[C@@H]1CCCC[C@@H]1O)NC(C)=O` (some centres not stated), the T/C (dose: 50.0 mg/kg/injection, schedule: Q01DX005 (ip), vehicle: suspension in saline) was 100 % of control, the T/C (dose: 100.0 mg/kg/injection, schedule: Q01DX005 (ip), vehicle: suspension in saline) was 99 % of control and the T/C (dose: 200.0 mg/kg/injection, schedule: Q01DX005 (ip), vehicle: suspension in saline) was 95 % of control.
With `Cc1ccc(Cl)cc1NC(=O)N(C)CCOC(=O)Nc1cccc(Cl)c1` the T/C (dose: 60.0 mg/kg/injection, schedule: Q01DX005 (ip), vehicle: Klucel + Tween-80) was 93 % of control and the T/C (dose: 120.0 mg/kg/injection, schedule: Q01DX005 (ip), vehicle: Klucel + Tween-80) was 92 % of control.
In the case of `COP(=O)(OC)C(=[N+]=[N-])P(=O)(OC(C)C)OC(C)C`, the T/C [8] is reported as 99 % of control, the T/C (dose: 200.0 mg/kg/injection, schedule: Q01DX001 (ip), vehicle: saline) is reported as 101 % of control and the T/C (dose: 400.0 mg/kg/injection, schedule: Q01DX001 (ip), vehicle: saline) is reported as 100 % of control.
For `CCCC(C)C/C(C)=C/C(C)(C)C(CC(=O)N1CCOCC1)C(=O)O` (configuration not stated), the T/C (dose: 25.0 mg/kg/injection, schedule: Q04DX003 (ip), vehicle: saline with Tween-80) was 100 % of control, the T/C (dose: 50.0 mg/kg/injection, schedule: Q04DX003 (ip), vehicle: saline with Tween-80) was 100 % of control and the T/C [9] was 100 % of control.
In the case of `CCCCCCCCCCCCCCCC(=O)N(CCCCN(C(=O)CCCCCCCCCCCCCCC)C(C)CCCN(CC)CC)C(C)CCCN(CC)CC` (configuration not stated), the T/C (dose: 25.0 mg/kg/injection, schedule: Q01DX009 (ip), vehicle: other) is reported as 93 % of control and the T/C (dose: 50.0 mg/kg/injection, schedule: Q01DX009 (ip), vehicle: other) is reported as 93 % of control.
In the case of `C(#C[P+]1(c2ccccc2)C=C(c2ccccc2)OC(c2ccccc2)=C1)c1ccccc1`, the T/C [10] is reported as 107 % of control, the T/C [11] is reported as 102 % of control and the T/C [1] is reported as 107 % of control.
`CCOC(=O)C(C(C)=O)C(=O)c1ccccc1` (configuration not stated) was tested, and the T/C (dose: 50.0 mg/kg/injection, schedule: Q01DX009 (ip), vehicle: saline + alcohol) was 95 % of control, the T/C (dose: 100.0 mg/kg/injection, schedule: Q01DX009 (ip), vehicle: saline + alcohol) was 101 % of control and the T/C (dose: 200.0 mg/kg/injection, schedule: Q01DX009 (ip), vehicle: saline + alcohol) was 96 % of control.
For `CCC1C(OC)=CC(CC)(C(=O)OC)C=C1OC` (configuration not stated), the T/C [1] was 100 % of control, the T/C [2] was 107 % of control and the T/C [3] was 107 % of control.
With `COc1ccc(CN2COc3c(ccc4ccccc34)C2)cc1` the T/C (dose: 100.0 mg/kg/injection, schedule: Q04DX003 (ip), vehicle: Klucel (hydroxypropylcellulose) (HPC)) was 97 % of control, the T/C (dose: 200.0 mg/kg/injection, schedule: Q04DX003 (ip), vehicle: Klucel (hydroxypropylcellulose) (HPC)) was 96 % of control and the T/C (dose: 400.0 mg/kg/injection, schedule: Q04DX003 (ip), vehicle: Klucel (hydroxypropylcellulose) (HPC)) was 100 % of control.
`COC(=O)N1c2ccccc2N(C(=O)OC)c2c1oc1ccccc1c2=O` was tested, and the T/C [12] was 92 % of control, the T/C [13] was 91 % of control and the T/C [14] was 101 % of control.
In the case of `ClCc1ccc2ccc3ccc(CCl)nc3c2n1`, the T/C [12] is reported as 103 % of control, the T/C [13] is reported as 100 % of control and the T/C [14] is reported as 104 % of control.
In the case of `CCC(C)C1=NCCCN1` (configuration not stated), the T/C [8] is reported as 100 % of control.
In the case of `Nc1nc(-c2ccccn2)cc2ccc(Cl)cc12`, the T/C (dose: 100.0 mg/kg/injection, schedule: Q01DX001 (ip), vehicle: saline with Tween-80) is reported as 101 % of control, the T/C (dose: 200.0 mg/kg/injection, schedule: Q01DX001 (ip), vehicle: saline with Tween-80) is reported as 104 % of control and the T/C (dose: 400.0 mg/kg/injection, schedule: Q01DX001 (ip), vehicle: saline with Tween-80) is reported as 104 % of control.
In the case of `CCN(CC)Cc1cc(C)c(O)c(N=Nc2cc(OC)c(N=Nc3ccc([N+](=O)[O-])cc3)cc2OC)c1C`, the T/C [9] is reported as 91 % of control, the T/C (dose: 200.0 mg/kg/injection, schedule: Q04DX003 (ip), vehicle: saline with Tween-80) is reported as 94 % of control and the T/C (dose: 400.0 mg/kg/injection, schedule: Q04DX003 (ip), vehicle: saline with Tween-80) is reported as 94 % of control.
With `CC(C)NC(=O)OCc1cn2c(c1COC(=O)NC(C)C)CCC2` the T/C [10] was 120 % of control and 121 % of control and the T/C [11] was 112 % of control.
With `NC(CC(=O)O)CC(=O)O` the T/C [11] was 93 % of control, the T/C [1] was 95 % of control and the T/C [2] was 98 % of control. The T/C [3] was 90 % of control and the T/C (dose: 400.0 mg/kg/injection, schedule: Q01DX005 (ip), vehicle: saline with Tween-80) was 89 % of control.
With `CNc1ccc2[nH]c3ccccc3c2c1` the T/C [12] was 104 % of control, the T/C [13] was 112 % of control and the T/C [14] was 104 % of control.
For `Cc1ncc(C[n+]2csc(CCO)c2C)c(N)n1`, the T/C [15] was 108 % of control, the T/C [16] was 105 % of control and the T/C (dose: 200.0 mg/kg/injection, schedule: Q01DX009 (ip), vehicle: saline) was 97 % of control.
For `O=C1NC(=O)N(/N=C/c2ccc(-c3ccc(Cl)c(Cl)c3)o2)C1O` (configuration not stated), the T/C (dose: 50.0 mg/kg/injection, schedule: Q04DX002 (ip), vehicle: saline with Tween-80) was 100 % of control, the T/C (dose: 100.0 mg/kg/injection, schedule: Q04DX002 (ip), vehicle: saline with Tween-80) was 99 % of control and the T/C (dose: 200.0 mg/kg/injection, schedule: Q04DX002 (ip), vehicle: saline with Tween-80) was 101 % of control.
In the case of `COc1cc(CCN)ccc1OCc1ccccc1`, the T/C (dose: 25.0 mg/kg/injection, schedule: Q01DX009 (ip), vehicle: saline) is reported as 107 % of control, the T/C [15] is reported as 104 % of control and the T/C [16] is reported as 110 % of control.
`CC12CC(c3ccccc3N1)C1CC2(C)Nc2ccccc21` was tested, and the T/C [5] was 95 % of control, the T/C [6] was 100 % of control and the T/C [7] was 102 % of control.
`CCOC(=O)c1c(Cl)c(Cc2ccccc2)c(Cl)n2c1nc1ccccc12` was tested, and the T/C [12] was 99 % of control, the T/C [13] was 93 % of control and the T/C [14] was 89 % of control.
`CCOP(=S)(OCC)OC(=O)C(C)SSC` (configuration not stated) (tested in a mixture with another compound) was tested, and the T/C [12] was 101 % of control and the T/C [13] was 104 % of control.
For `CC(=O)Nc1ccn(C)c1[N+](=O)[O-]`, the T/C (dose: 100.0 mg/kg/injection, schedule: Q01DX001 (ip), vehicle: Klucel (hydroxypropylcellulose) (HPC)) was 100 % of control, the T/C (dose: 200.0 mg/kg/injection, schedule: Q01DX001 (ip), vehicle: Klucel (hydroxypropylcellulose) (HPC)) was 97 % of control and the T/C (dose: 400.0 mg/kg/injection, schedule: Q01DX001 (ip), vehicle: Klucel (hydroxypropylcellulose) (HPC)) was 102 % of control.
With `Cc1ccc2c(c1)C(C)(C)C(O)CC2(C)C` (configuration not stated) the T/C [5] was 98 % of control, the T/C [6] was 106 % of control and the T/C [7] was 109 % of control.
`Cc1cc[n+](C)c(Cc2ccccc2)c1C` was tested, and the T/C (dose: 12.5 mg/kg/injection, schedule: Q01DX005 (ip), vehicle: Klucel (hydroxypropylcellulose) (HPC)) was 97 % of control, the T/C [4] was 100 % of control and the T/C [5] was 112 % of control.
For `O=C1[C@@H]2C3C=CC([C@H]4C(=O)N(CO)C(=O)[C@@H]34)[C@@H]2C(=O)N1CO`, the T/C (dose: 25.0 mg/kg/injection, schedule: Q01DX009 (ip), vehicle: Klucel (hydroxypropylcellulose) (HPC)) was 114 % of control and the T/C (dose: 200.0 mg/kg/injection, schedule: Q01DX009 (ip), vehicle: Klucel (hydroxypropylcellulose) (HPC)) was 152 % of control and 160 % of control.
